Reference: patent US12508306B2, “Compositions and methods of use thereof for treatment of metabolic diseases and related disorders” (Washington University, priority 2018, dated 2025)

Columns and labels:
[1] = test system: Arg2; experiment: Arg2 gene expression in cultured primary hepatocytes (RNA-seq, qPCR); format: cell-based, murine
Excerpt: AML12 cells (CRL-2254) were purchased directly from the American Type Culture Collection (ATCC) and propagated and maintained precisely per manufacturer specification. Primary hepatocyte cell isolation, culture and treatment Primary murine hepatocytes obtained from WT mice were isolated^24,25,31 and cultured and maintained in regular DMEM growth media (Sigma, #D5796) containing 10% FBS. For in vitro starvation experiments, “starved” media contained 1 g/L glucose and 0:5% FBS was used. Cultures were lysed in Trizol and subjected to downstream analysis. In vitro genetic knockdown was achieved via siRNA transfection using Lipofectamine 3000 from Invitrogen (L3000015). Trehalose was obtained from Sigma Aldrich (St. Louis, MO) and was >97% purity by HPLC. Three percent trehalose water (w/v) fed ad libitum was used in all in vivo experiments.
(§1) Total RNA was prepared by homogenizing snap-frozen livers or cultured hepatocytes in Trizol reagent (Invitrogen #15596026) according to the manufacturer's protocol. cDNA was prepared using Qiagen Quantitect reverse transcriptase kit (Qiagen #205310). Real-time qPCR was performed with Step-One Plus Real-Time PCR System (Applied Biosystems) using SYBR Green master Mix Reagent (Applied Biosystems) and specific primer pairs. Relative gene expression was calculated by a comparative method using values normalized to the expression of an internal control gene.

[2] = test system: Arg2; experiment: Hepatic Arg2 expression by qPCR and immunoblot in mice subjected to trehalose feeding; format: in vivo; settings: mice fed 3% trehalose water ad libitum, 5 days
Excerpt: AML12 cells (CRL-2254) were purchased directly from the American Type Culture Collection (ATCC) and propagated and maintained precisely per manufacturer specification. Primary hepatocyte cell isolation, culture and treatment Primary murine hepatocytes obtained from WT mice were isolated^24,25,31 and cultured and maintained in regular DMEM growth media (Sigma, #D5796) containing 10% FBS. For in vitro starvation experiments, “starved” media contained 1 g/L glucose and 0:5% FBS was used. Cultures were lysed in Trizol and subjected to downstream analysis. In vitro genetic knockdown was achieved via siRNA transfection using Lipofectamine 3000 from Invitrogen (L3000015). […]
as §1, with “Real-time qPCR was performed with Step-One Plus Real-Time PCR System (Applied Biosystems) using SYBR Green master Mix Reagent (Applied Biosystems) and specific primer pairs.” left out
Tissues were homogenized in RIPA buffer supplemented with protease and phosphatase inhibitors (Thermo Scientific). […] Protein concentration was determined by BCA Assay Kit (Thermo Scientific) and was adjusted to 2 mg/mL. […] Protein expression levels were quantified with Image Lab software and normalized to the levels of β-actin or GAPDH.

[3] = read-out: Km for arginine; cited from earlier work

OCC1OC(OC2OC(CO)C(O)C(O)C2O)C(O)C(O)C1O (centres unmarked) [Lactotrehalose, lactotrehalose]
Arg2 expression compared with native trehalose at equivalent doses ([1]; primary hepatocytes, 10 mM and 100 mM): significantly enhanced

OC[C@H]1O[C@H](O[C@H]2O[C@H](CO)[C@@H](O)[C@H](O)[C@H]2O)[C@H](O)[C@@H](O)[C@@H]1O [trehalose]
Arg2 induction by qPCR and immunoblot ([1]; primary hepatocytes, 1 mM, 10 mM, and 100 mM, within 24 h): rapid, dose-dependent, cell autonomous Arg2 induction
Arg2 expression by RNA-seq ([1]; trehalose-treated primary hepatocytes relative to untreated hepatocytes): among the most highly upregulated genes
hepatic Arg2 mRNA and protein [2]: induced Arg2 mRNA and protein

B1: human arginase 1: human arginase 1 enzyme (protein, UniProt P05089 1-322, looked up)
Arginase-1: MSAKSRTIGIIGAPFSKGQPRGGVEEGPTVLRKAGLLEKLKEQECDVKDYGDLPFADIPNDSPFQIVKNPRSVGKASEQLAGKVAEVKKNGRISLVLGGDHSLAIGSISGHARVHPDLGVIWVDAHTDINTPLTTTSGNLHGQPVSFLLKELKGKIPDVPGFSWVTPCISAKDIVYIGLRDVDPGEHYILKTLGIKYFSMTEVDRLGIGKVMEETLSYLLGRKKRPIHLSFDVDGLDPSFTPATGTPVVGGLTYREGLYITEEIYKTGLLSGLDIMEVNPSLGKTPEEVTRTVNTAVAITLACFGLAREGNHKPIDYLNPPK
Km [3]: ~45 mM
